Literature values, collected in PMC10872542 (Structure (London, England : 1993), 2023).

System: TRPV5
Conditions: read-out: IC50 of TRPV5 inhibition

Row | IC50 [nM] | Structure (SMILES)
1 | ~3000 | CC(OC(=O)CC1Sc2ccccc2NC1=O)c1nc2scc(-c3ccccc3)c2c(=O)[nH]1 (stereo not drawn) [ZINC9155420]
2 | ~100 | O=C(CCN1C(=O)COc2ccccc21)OCc1nc2scc(-c3ccccc3)c2c(=O)[nH]1 [ZINC17988990]
3 | ~100 | Cl.Cl.Cl.Cl.Cl.Cl.N.N.N.N.N.N.N.N.N.N.N.N.N.N.[O-2].[O-2].[Ru+3].[Ru+3].[Ru+4] [ruthenium red]
